How the values were obtained:
α-TN4 = experiment: Snail up-regulation in α-TN4 lens epithelial cell line after TGF-β addition; format: cell-based, mouse; details: prior to up-regulation of αSMA
[1] = tested on: renal tubular epithelial cells; experiment: TGF-β1-induced EMT and autoinduction in primary culture of renal tubular epithelial cells; format: cell-based, mouse; details: wild-type cells, TGF-β1 10 ng/ml
Method: Minced kidneys were washed with 3 changes of cold PBS containing 1 mM EDTA and digested in 0.25% trypsin solution (Gibco BRL, Grand Island, N.Y.) in a shaking incubator at 37° C. for 2 h. Trypsin was neutralized with growth medium (DMEM/10% FBS containing 100 unit/ml penicillin and 0.1 mg/ml streptomycin). The suspension was triturated by pipetting and passed through a 100 μm cell strainer (Becton Dickinson Labware, Franklin Lakes, N.J.). The filtrate consisting mostly of dispersed renal tubules was plated onto culture dishes (Nalge Nunc International, Naperville, Ill.) and 2-well chamber slides (Nunc Lab-Tek II-CC2, Nalge Nunc International), and incubated at 37° C. in a CO2 incubator with medium changes every 2 days. Experiments were carried out in serum-free DMEM. EMT was induced by an addition of 10 ng/ml TGF-β1 (R&D Systems, Minneapolis, Minn.). Mouse monoclonal anti-TGF-β neutralizing antibody (clone: 1D11, R & D Systems) was used at a concentration of 20 μg/ml with mouse IgG (Sigma, St Louis, Mo.) as a control.
Histological sections were prepared from tissues fixed in 4% paraformaldehyde in 0.1 M phosphate buffer, pH 7.4, and embedded in paraffin. Cryosections and bottom sheets of BioFlex were fixed in cold acetone and subjected to indirect immunofluorescence with anti-E-cadherin (clone: DECMA-1, Sigma, St Louis, Mo.), anti-α-SMA (clone: 1A4, NeoMarkers, Fremont, Calif.), anti-mouse type I collagen (Southern Biotechnology, Birmingham, Ala.) and anti-mouse F4/80 antibodies (clone: A3-1, BMA, Augst, Switzerland). As second antibodies, FITC-anti-rat IgG (Sigma), TRITC-anti-mouse IgG (Sigma) or Cy3-anti-goat IgG (Sigma) were used.
Cells and tissues were lysed in buffer containing 1% Nonidet P-40, 25 mM Tris-HCl, pH 7.5, 150 mM NaCl, 10 mM EDTA and 1:50 dilution of a protease inhibitor cocktail (P-2714, Sigma). Proteins were separated by SDS-PAGE, transferred to nitrocellulose membranes, and blocked in 5% skim milk in PBS. After incubation with primary antibodies against E-cadherin (clone: 36, Transduction Laboratories, Lexington, Ky.), α-SMA (clone: 1A4) and actin antibodies (Sc-1616, Santa Cruz Biochemicals, Santa Cruz, Calif.), blots were reacted with POD-conjugated goat anti-mouse IgG secondary antibody (Sigma) and developed with ECL (Amersham Biosciences, Buckingshire, UK).
Total RNA was extracted with TRIzol reagent (Invitrogen, Carlsbad, Calif.). RNA (20 μg/lane), separated in 1% agarose-formaldehyde gels and transferred to Hybond-HX nylon membranes (Amersham). Membranes were hybridized with cDNA probes for mouse Snail and TGF-β1 mRNA labeled with [P^32] dCTP by random primed DNA synthesis using the same primers as above (Rediprime II, Amersham Pharmacia Inc., Piscataway, N.J.). Filters were exposed to X-ray film at −80° C. for 2 to 3 d. […]

ARPE-19 cells [2] = experiment: Production of PDGF, TGF-β1 and collagen type I in ARPE-19 cells treated with TGF-β2; format: cell-based, human; details: for amount of type I collagen in culture medium and cell lysate (ELISA): 48 hr
Method: Expression of PDGF-BB in ARPE-19 cells was assessed by western blot of cell lysates using PDGF-B (H-55, Santa Cruz Biotechnology, Inc.). Enzyme-linked immunosorbent assays (ELISAs) for PDGF-BB, PDGF-AB and TGF-β1 (R & D Systems, Inc., Minneapolis, Minn.) were used to determine the concentration of each peptide in the culture medium. ARPE-19 cells were grown in 6-well plates to near confluence and then cultured in 500 μl of serum-free DMEM/F-12 supplemented with antibiotics in the presence or absence of human recombinant TGF-β2 (1.0 ng/ml R & D Systems, Inc., Minneapolis, Minn.) for 48 or 96 hrs. Nine wells were prepared for each culture condition. Medium was processed for ELISAs for determination of the concentration of PDGF-BB and -AB according to the manufacturers' protocols. Medium (48 hr) was also processed for the determination of TGF-β1 by an ELISA kit (R & D Systems, Minneapolis, Minn.). Type I collagen was quantified in medium and sonicated cell lysates (48 hr) and processed for an ELISA system for type I collagen C-terminal peptide (PIP ELISA kit, Takara, Tokyo, Japan). Confluent cells grown on a chamber slides (Nunc) were immunostained for collagen type I (1:100 dilution in PBS, Southern Biotechnology).

lens epithelium = experiment: Organ-culture of mouse lenses with TGF-β2; format: cell-based; details: TGF-β2 10 ng/ml, not KO
Method: The crystalline lens was carefully removed from enucleated eyes of adult Smad3-KO or WT mice and processed for organ-culture as previously described (Saika, S. et al. 2003 Invest Ophthalmol Vis Sci 44: 2094-2102). Three lenses were used in each culture condition. The lens was incubated in DMEM supplemented with antibiotics in the presence and absence of porcine TGF-β2 (10 ng/ml) with a medium change every 2 days. After 5 or 10 days of culture, the tissue was fixed in 2.0% paraformaldehyde as described above. Paraffin sections were processed for histology and immunohistochemistry.
Sections (5 μm) were deparaffinized and stained with hematoxylin and eosin (HE) alone or with polyclonal antibodies against collagen types I and V (both 1:100 dilution in PBS, Southern Biotechnology, Birmingham, Ala.), rabbit polyclonal anti-lumican antibody (10 μg/ml)(Saika, S. et al. 2000 J Biol Chem 275: 2607-2612), or with a mouse monoclonal anti-αSMA antibody (1:100 dilution in PBS, NeoMarker, Fremont, Calif., USA), rabbit polyclonal antibodies against the TGF-β isoforms as previously reported (Flanders, K. C. et al. 1991 Development 113: 183-191), or with non-immune IgG (control). After binding of labeled secondary antibody and the color reaction with 3,3′-diaminobenzidine, sections were counterstained with methyl green and mounted in balsam. […]

ARPE-19 cells [3] = experiment: EMT and Smad phosphorylation in ARPE-19 cells; format: cell-based, human
Text: (§1) The ARPE-19 human RPE cell line (ATCC # CRL-2302) (Dunn, K. C. et al. 1996 Exp Eye Res 62:155-169) was used to assess effects of […] TGF-β2 on expression of αSMA and Smad3 activation as previously described (EXAMPLE 1). Effect of addition of TGF-β2 on ARPE-19 cell migration was examined by using a model of in vitro closure of a monolayer cell sheet as previously reported (Saika, S. et al. 1995 Graefes Arch Clin Exp Ophthalmol 233:347-353).

RPE cells = experiment: Wounding of the RPE cell layer in organ-cultured mouse globes; format: cell-based; details: TGF-β2 10 ng/ml, WT posterior segments; KO negative
Method: Both eyes were enucleated immediately after being sacrificed as described above. Anterior eye segment structures (cornea and lens) and retina were carefully removed from the globe. After the RPE cell layer had been wounded by scraping using a silicone needle, the tissue was cultured in Eagle's medium supplemented with 10% fetal calf serum in the presence or absence of human recombinant TGF-β2 at 10 ng/ml for 48 hr. The tissue was fixed and embedded in paraffin as previously described (Example 1).
Sections (5 μm) were deparaffinized and stained with hematoxylin and eosin (HE) alone or with polyclonal antibodies against collagen type VI (1:100 dilution in PBS, Southern Biotechnology, Birmingham, Ala.), rabbit polyclonal anti-lumican antibody (10 μg/ml (Saika, S. et al. 2000 J Biol Chem 275:2607-2612)), mouse monoclonal anti-αSMA antibody (1:100 dilution in PBS, NeoMarker, Fremont, Calif., USA), goat polyclonal anti-PDGF-B antibody (1:200 dilution in PBS, Santa Cruz), mouse monoclonal anti-proliferating cell nuclear antigen (PCNA) antibody (1:100 dilution in PBS, Santa Cruz) or with non-immune IgGs (control). After binding of FITC-labeled secondary antibodies (1:100 dilution in PBS, Cappel ICN, Aurora, Ohio, USA), the specimens were observed under fluorescent microscopy followed by mounted with VectaShield with nuclear DAPI staining. […]

[4] = tested on: primary porcine RPE cells; experiment: EMT in primary cultures of porcine RPE cells (αSMA immunostaining); format: cell-based; details: TGF-β2 10 ng/ml, 48 hr; not in its absence
Method: Cultures of primary porcine RPE cells were prepared by aspirating RPE layers from a hemi-sectioned pig eye after removing the retina by using a micropipette, and putting the aspirate in a 30-mm diameter collagen-coated plastic culture dish to allow the epithelial cells to outgrow. After reaching confluence, the cells were trypsinized, suspended in Dulbecco's modified Eagle's essential medium (DMEM) supplemented with 10% fetal calf serum, and seeded on fibronectin-coated chamber slides (Falcon, Becton Dickinson, Lincoln Park, N.J.) in the presence and absence of 10 ng/ml of porcine TGF-β2 (R & D systems Inc., Minneapolis, Minn.). At 24 hr culture intervals the cells were fixed and immunostained for αSMA.

ARPE-19 cells [5] = experiment: Proliferation of ARPE-19 cells (MTT assay); format: cell-based, human; details: sparse cultures, up to 120 hr; PDGF-BB 5 ng/ml, TGF-β2 1 ng/ml
Method: Effects of adding TGF-β2, PDGF-BB, and/or anti-PDGF-B-neutralizing antibody on proliferation of ARPE-19 cells were assessed using the MTT assay (TACS MTT Cell Proliferation Assay Kit, Trevigen, Gaithersburg, Md., USA) according to manufacturer's instruction. ARPE 19 cells suspended in DMEM/F-12 supplemented with 15% fetal calf serum (2×10^4/100 μl/well) were seeded in 96-well culture plates (8 wells for each condition). After 12 hrs cells were changed to 100 μl serum-free culture medium and cultured for an additional 120 hr supplemented with PDGF-BB (5.0 ng/ml) or TGF-β2 (1.0 ng/ml), with either neutralizing anti-PDGF-B antibody (20 μg/ml) or non-immune IgG (20 μg/ml) as control. At the end of each culture interval, MTT reagent (10 μl) was added to each well and the incubation continued for an additional 5 hr at 37° C. Optical density at 570 nm was measured 4 hr after adding the lysis solution contained in the kit.

ARPE-19 cells [6] = experiment: ARPE-19 cell migration, in vitro closure of a defect in a monolayer cell sheet; format: cell-based, human; details: TGF-β2 1.0 ng/ml; 24 hrs for the untreated culture
Text: as §1

## TGF-β
α-TN4
  earliest time of snail up-regulation after TGF-β addition: 30 min

## TGF-β1: exogenous TGF-β1 (R&D Systems), growth factor used to induce EMT
[1]; 8 h, not in Smad3-null cells
  Snail mRNA (Northern blot): de novo expression of Snail mRNA
[1]; 24 h, vs non-treated wild-type, not in Smad3-null cells
  TGF-β1 mRNA expression (autoinduction): enhanced expression of TGF-β1 mRNA
[1]; 24 h, Smad3-null cells retained epithelial monolayer
  cell morphology (phase-contrast microscopy): spindle-shaped, fibroblastic appearance
[1]; 24 h, not seen in Smad3-null cells
  E-cadherin and α-SMA by dual immunofluorescence: Marked reduction of E-cadherin and de novo expression of α-SMA
ARPE-19 cells [2]
  amount of type I collagen in culture medium and cell lysate (ELISA): increase

## TGF-β2: exogenous TGF-β2 growth factor; porcine or human recombinant depending on experiment
Lens epithelium; 10 days, WT lenses
  lens epithelium morphology and EMT markers (lumican, αSMA, collagen type I): multilayer of cells of a fibroblastic morphology
Lens epithelium; day 5, WT lenses
  expression of lumican: up-regulated expression of lumican
ARPE-19 cells [3]; TGF-β2 for 72 hr
  αSMA expression: clusters of αSMA positive cells
ARPE-19 cells [3]; immunofluorescence, no longer detectable at 24 hr
  time of highest level of nuclear translocation of Smad3 after addition of TGF-β2: 1 h
ARPE-19 cells [3]; remained activated up to 48 hrs
  time to phosphorylation of Smads2/3 after TGF-β2 exposure (Western blotting): ≤ 30 min
RPE cells
  αSMA expression in wounded pigment epithelium: expresses αSMA faintly at 24 hr and then clearly at 48 hr
[4]
  αSMA expression: express αSMA
ARPE-19 cells [2]
  amount of type I collagen in culture medium and cell lysate (ELISA): increase
ARPE-19 cells [2]; TGF-β2 1.0 ng/ml
  PDGF-AB production (ELISA): significantly increased
ARPE-19 cells [2]; TGF-β2 1.0 ng/ml, 96 hrs
  concentration of PDGF-BB in culture medium (ELISA): approximately 500 pg/ml
ARPE-19 cells [2]; TGF-β2 1.0 ng/ml, beginning about 48-72 hrs after addition
  PDGF-B protein expression (Western blotting): time-dependent up-regulation
ARPE-19 cells [2]; TGF-β2 1.0 ng/ml, confluent cultures
  PDGF-BB protein secreted into the culture medium, increase above control cultures (ELISA): over 2 fold
ARPE-19 cells [2]; exogenous TGF-β2, 48 hr
  expression of TGF-β1 in medium (ELISA): significant increase
ARPE-19 cells [5]
  growth of the cells (MTT assay): inhibited
ARPE-19 cells [6]
  time to closure of the defect in wounded monolayer: ≤ 12 h

B1: PDGF-BB: exogenous PDGF-BB, a potent mitogen, 5.0 ng/ml (protein, UniProt P01127 82-190, looked up)
Platelet-derived growth …: SLGSLTIAEPAMIAECKTRTEVFEISRRLIDRTNANFLVWPPCVEVQRCSGCCNNRNVQCRPTQVQLRPVQVRKIEIVRKKPIFKKATVTLEDHLACKCETVAAARPVT
modifications: homodimer PDGF-BB
ARPE-19 cells [5]
  growth of the cells (MTT assay): enhanced

— US20060040253A1, “Use of Smad3 inhibitor in the treatment of fibrosis dependent on epithelial to mesenchymal transition as in the eye and kidney” (priority 2003, published 2006)
